Experimental data: publication PMC10581193 (Microbiology Spectrum, 2023)
Values after ≈ are worked out from the molar mass of the structure shown.

What follows are molecules tested on M. tuberculosis H37Ra (assay: microbe, parasite or virus in culture). Settings: not given.
Assay type: cell-based, Mycobacterium tuberculosis

| Molecule | MIC against H37Ra |
| --- | --- |
| 6-bromo-N-(2-hydroxyethyl)-4-((2-methoxy-5-(trifluoromethyl)pyridin-3-yl)methyl)-3,4-dihydro-2H-benzo[2, 4]oxazine-8-carboxamide [B4] | 25 µg/mL |
| Cc1cc(C(=O)NCCO)c2c(c1)N(Cc1nc(C)c(C)nc1C)CCO2 [B13, N-(2-hydroxyethyl)-6-methyl-4-((3,5,6-trimethylpyrazin-2-yl)methyl)-3,4-dihydro-2H-benzo[b][1,4]oxazine-8-carboxamide] | ≥ 100 |
| Cc1cc(C(=O)NCC(F)(F)F)c2c(c1)N(Cc1nc(C)c(C)nc1C)CCO2 [B12, 6-methyl-N-(2,2,2-trifluoroethyl)-4-((3,5,6-trimethylpyrazin-2-yl)methyl)-3,4-dihydro-2H-benzo[b][1,4]oxazine-8-carboxamide] | ≥ 100 |
| 6-bromo-N-(2,2-difluoroethyl)-4-((2-methoxy-5-(trifluoromethyl)pyridin-3-yl)methyl)-3,4-dihydro-2H-benzo[b][1,4]oxazine-8-carboxamide [B5] | > 25 µg/mL |
| Cc1nc(C)c(CN2CCOc3c(C(=O)NCC(F)F)cc(Br)cc32)nc1C [B2] | 0.39 |
| 6-bromo-N-(2-fluoroethyl)-4-((2-methoxy-5-(trifluoromethyl)pyridin-3-yl)methyl)-3,4-dihydro-2H-benzo[2, 4]oxazine-8-carboxamide [B3] | 1.56 µg/mL |
| COc1ncnc(Cn2ccc3c(C(=O)NCC(F)F)cc(Br)cc32)c1C [A4, 6-bromo-N-(2,2-difluoroethyl)-1-((6-methoxy-5-methylpyrimidin-4-yl)methyl)-1H-indole-4-carboxamide] | 0.5 |

Same assay, conditions: Mycobacterium tuberculosis, H37RA, read-out: MIC against H37Ra

| Molecule | MIC [µg/mL] |
| --- | --- |
| Cc1nc(C)c(CN2CCOc3c(C(=O)N(C)CC(F)(F)F)cc(C4CC4)cc32)nc1C [B34, 6-cyclopropyl-N-methyl-n-(2,2,2-trifluoroethyl)-4-((3,5,6-trimethylpyrazin-2-yl)methyl)-3,4-dihydro-2H-benzo[b][1,4]oxazine-8-carboxamide] | > 25 |
| COc1ccc(F)c(F)c1Cn1ccc2c(C(=O)NCCF)cc(Br)cc21 [A1] | > 6.25 |
| COc1ccc(CN2CCOc3c(C(=O)NCC(F)(F)F)cc(C4CC4)cc32)cc1F [B24, 6-cyclopropyl-4-(3-fluoro-4-methoxybenzyl)-N-(2,2,2-trifluoroethyl)-3,4-dihydro-2H-benzo[b][1,4]oxazine-8-carboxamide] | > 25 |
| Cc1nc(C)c(CN2CCOc3c(C(=O)NC4CCC(F)(F)CC4)cc(C4CC4)cc32)nc1C [B32, 6-cyclopropyl-N-(4,4-difluorocyclohexyl)-4-((3,5,6-trimethylpyrazin-2-yl)methyl)-3,4-dihydro-2H-benzo[b][1,4]oxazine-8-carboxamide] | > 25 |
| COc1ncc(C(F)(F)F)cc1Cn1ccc2c(C(=O)NCC(F)F)cc(C)cc21 [A10, N-(2,2-difluoroethyl)-1-((2-methoxy-5-(trifluoromethyl)pyridin-3-yl)methyl)-6-methyl-1H-indole-4-carboxamide] | > 6.25 |
| COc1c(CN2CCOc3c(C(=O)NCC(F)F)cc(Br)cc32)ccc(F)c1F [B9, 6-bromo-4-(3,4-difluoro-2-methoxybenzyl)-N-(2,2-difluoroethyl)-3,4-dihydro-2H-benzo[b][1,4]oxazine-8-carboxamide] | > 100 |
| COc1ccc(F)c(F)c1Cn1ccc2c(C(=O)NCC(F)F)cc(Br)cc21 [A2, 6-bromo-1-(2,3-difluoro-6-methoxybenzyl)-N-(2,2-difluoroethyl)-1H-indole-4-carboxamide] | > 6.25 |
| COc1ncnc(Cn2ccc3c(C(=O)NCC(F)F)cc(C)cc32)c1C [A9, N-(2,2-difluoroethyl)-1-((6-methoxy-5-methylpyrimidin-4-yl)methyl)-6-methyl-1H-indole-4-carboxamide] | 0.18 (≈ 0.481 µM) |
| Cc1nc(C)c(CN2CCOc3c(C(=O)NCCO)cc(C4CC4)cc32)nc1C [B19, 6-cyclopropyl-N-(2-hydroxyethyl)-4-((3,5,6-trimethylpyrazin-2-yl)methyl)-3,4-dihydro-2H-benzo[b][1,4]oxazine-8-carboxamide] | > 100 |
| Cc1cc(C(=O)NCC(F)F)c2ccn(Cc3nc(C)c(C)nc3C)c2c1 [A8, N-(2,2-difluoroethyl)-6-methyl-1-((3,5,6-trimethylpyrazin-2-yl)methyl)-1H-indole-4-carboxamide] | > 6.25 |
| Cc1nc(C)c(Cn2ccc3c(C(=O)NCC(F)F)cc(Br)cc32)nc1C [A3, 6-bromo-N-(2,2-difluoroethyl)-1-((3,5,6-trimethylpyrazin-2-yl)methyl)-1H-indole-4-carboxamide] | > 6.25 |
| O=C(NCC(F)(F)F)c1cc(C2CC2)cc2c1OCCN2Cc1ccc2ccccc2c1 [B20, 6-cyclopropyl-4-(naphthalen-2-ylmethyl)-N-(2,2,2-trifluoroethyl)-3,4-dihydro-2H-benzo[b][1,4]oxazine-8-carboxamide] | > 25 |
| COc1ccc(F)c(F)c1CN1CCOc2c(C(=O)NCCO)cc(Br)cc21 [B8, 6-bromo-4-(2,3-difluoro-6-methoxybenzyl)-N-(2-hydroxyethyl)-3,4-dihydro-2H-benzo[b][1,4]oxazine-8-carboxamide] | > 100 |
| Cc1cc(C(=O)NCCO)c2c(c1)N(Cc1nc(C)c(C)nc1C)CCO2 [B13, N-(2-hydroxyethyl)-6-methyl-4-((3,5,6-trimethylpyrazin-2-yl)methyl)-3,4-dihydro-2H-benzo[b][1,4]oxazine-8-carboxamide] | > 100 |
| Cc1cc(C(=O)NCC(F)(F)F)c2c(c1)N(Cc1nc(C)c(C)nc1C)CCO2 [B12, 6-methyl-N-(2,2,2-trifluoroethyl)-4-((3,5,6-trimethylpyrazin-2-yl)methyl)-3,4-dihydro-2H-benzo[b][1,4]oxazine-8-carboxamide] | 100 (≈ 245 µM) |
| Cc1cc(C(=O)NC2CC2)c2c(c1)N(Cc1nc(C)c(C)nc1C)CCO2 [B14, N-cyclopropyl-6-methyl-4-((3,5,6-trimethylpyrazin-2-yl)methyl)-3,4-dihydro-2H-benzo[b][1,4]oxazine-8-carboxamide] | 50 (≈ 136 µM) |
| COc1c(CN2CCOc3c(C(=O)NCCO)cc(Br)cc32)ccc(F)c1F [B10, 6-bromo-4-(3,4-difluoro-2-methoxybenzyl)-N-(2-hydroxyethyl)-3,4-dihydro-2H-benzo[b][1,4]oxazine-8-carboxamide] | > 100 |

| Molecule | MIC [µg/mL] |
| --- | --- |
| COC(=O)c1cccc(CN2CCOc3c(C(=O)NCC(F)(F)F)cc(C4CC4)cc32)c1 [B25, methyl 3-((6-cyclopropyl-8-((2,2,2-trifluoroethyl)carbamoyl)-2,3-dihydro-4H-benzo[b][1,4]oxazin-4-yl)methyl)benzoate] | > 25 |
| Cc1nc(C)c(CN2CCOc3c(C(=O)NCC(C)(F)F)cc(C4CC4)cc32)nc1C [B29, 6-cyclopropyl-N-(2,2-difluoropropyl)-4-((3,5,6-trimethylpyrazin-2-yl)methyl)-3,4-dihydro-2H-benzo[b][1,4]oxazine-8-carboxamide] | > 25 |
| Cc1nc(C)c(CN2CCOc3c(C(=O)NCCCC(F)(F)F)cc(C4CC4)cc32)nc1C [B31, 6-cyclopropyl-N-(4,4,4-trifluorobutyl)-4-((3,5,6-trimethylpyrazin-2-yl)methyl)-3,4-dihydro-2H-benzo[b][1,4]oxazine-8-carboxamide] | > 25 |
| Cc1nc(C)c(CN2CCOc3c(C(=O)NCC(F)F)cc(C4CC4)cc32)nc1C [B17, 6-cyclopropyl-N-(2,2-difluoroethyl)-4-((3,5,6-trimethylpyrazin-2-yl)methyl)-3,4-dihydro-2H-benzo[b][1,4]oxazine-8-carboxamide] | 0.6 (≈ 1.44 µM) |
| Cc1ccc(CN2CCOc3c(C(=O)NCC(F)(F)F)cc(C4CC4)cc32)cc1 [B21, 6-cyclopropyl-4-(4-methylbenzyl)-N-(2,2,2-trifluoroethyl)-3,4-dihydro-2H-benzo[b][1,4]oxazine-8-carboxamide] | > 25 |
| COc1ccc(F)c(F)c1Cn1ccc2c(C(=O)NCC(F)F)cc(C)cc21 [A7, 1-(2,3-difluoro-6-methoxybenzyl)-N-(2,2-difluoroethyl)-6-methyl-1H-indole-4-carboxamide] | > 6.25 |
| Cc1nc(C)c(CN2CCOc3c(C(=O)N[C@@H](C)C(F)(F)F)cc(C4CC4)cc32)nc1C [B26, (S)-6-cyclopropyl-N-(1,1,1-trifluoropropan-2-yl)-4-((3,5,6-trimethylpyrazin-2-yl)methyl)-3,4-dihydro-2H-benzo[b][1,4]oxazine-8-carboxamide] | > 25 |
| Cc1cc(C)cc(CN2CCOc3c(C(=O)NCC(F)(F)F)cc(C4CC4)cc32)c1 [B22, 6-cyclopropyl-4-(3,5-dimethylbenzyl)-N-(2,2,2-trifluoroethyl)-3,4-dihydro-2H-benzo[b][1,4]oxazine-8-carboxamide] | > 25 |
| Cc1nc(C)c(CN2CCOc3c(C(=O)N[C@H](C)C(F)(F)F)cc(C4CC4)cc32)nc1C [B27, (R)-6-cyclopropyl-N-(1,1,1-trifluoropropan-2-yl)-4-((3,5,6-trimethylpyrazin-2-yl)methyl)-3,4-dihydro-2H-benzo[b][1,4]oxazine-8-carboxamide] | > 25 |
| COc1ccc(F)c(F)c1CN1CCOc2c(C(=O)NCCF)cc(Br)cc21 [B6, 6-bromo-4-(2,3-difluoro-6-methoxybenzyl)-N-(2-fluoroethyl)-3,4-dihydro-2H-benzo[b][1,4]oxazine-8-carboxamide] | > 100 |
| Cc1cc(C(=O)NC2CCCCC2)c2c(c1)N(Cc1nc(C)c(C)nc1C)CCO2 [B16, N-cyclohexyl-6-methyl-4-((3,5,6-trimethylpyrazin-2-yl)methyl)-3,4-dihydro-2H-benzo[b][1,4]oxazine-8-carboxamide] | < 0.78 |
| Cc1nc(C)c(CN2CCOc3c(C(=O)NCC(F)F)cc(Br)cc32)nc1C [B2] | 0.39 (≈ 0.857 µM) |
| Cc1nc(C)c(CN2CCOc3c(C(=O)NCCC(F)(F)F)cc(C4CC4)cc32)nc1C [B28, 6-cyclopropyl-N-(3,3,3-trifluoropropyl)-4-((3,5,6-trimethylpyrazin-2-yl)methyl)-3,4-dihydro-2H-benzo[b][1,4]oxazine-8-carboxamide] | > 25 |
| Cc1nc(C)c(CN2CCOc3c(C(=O)NCC(F)(F)CO)cc(C4CC4)cc32)nc1C [B30, 6-cyclopropyl-N-(2,2-difluoro-3-hydroxypropyl)-4-((3,5,6-trimethylpyrazin-2-yl)methyl)-3,4-dihydro-2H-benzo[b][1,4]oxazine-8-carboxamide] | > 25 |
| COc1ncnc(Cn2ccc3c(C(=O)NCC(F)F)cc(Br)cc32)c1C [A4, 6-bromo-N-(2,2-difluoroethyl)-1-((6-methoxy-5-methylpyrimidin-4-yl)methyl)-1H-indole-4-carboxamide] | 0.5 (≈ 1.14 µM) |
| COc1cc(CN2CCOc3c(C(=O)NCC(F)(F)F)cc(C4CC4)cc32)cc(OC)c1 [B23, 6-cyclopropyl-4-(3,5-dimethoxybenzyl)-N-(2,2,2-trifluoroethyl)-3,4-dihydro-2H-benzo[b][1,4]oxazine-8-carboxamide] | > 25 |
| COc1ccc(F)c(F)c1CN1CCOc2c(C(=O)NCC(F)F)cc(Br)cc21 [B7, 6-bromo-4-(2,3-difluoro-6-methoxybenzyl)-N-(2,2-difluoroethyl)-3,4-dihydro-2H-benzo[b][1,4]oxazine-8-carboxamide] | > 100 |
